The source of these data is US8486945B2, “Heterocyclic inhibitors of an Hh-signal cascade, medicinal compositions based thereon and methods for treating diseases caused by the aberrant activity of an Hh-signal system” (priority 2007, dated 2013).

Where two headings read alike, the source gives them in different places. Bounds are passed on as bounds.

Data set [1] concerns human's pancreatic carcinoma Panc1. Kind of data set: Antitumour activity in Panc1 xenograft mice model. Type of data set: in vivo, mice Balb-c/nude. The protocol: Example of antitumour activity of compound III-1029 towards human's pancreatic carcinoma model Panc1, implanted to immunodeficient transgenic (naked) mice Balb-c/nude, is presented in FIG. 3. Mice of 8 weeks age which were implanted with pancreatic carcinoma by injection of 4×10^6 tumour cells were used in the experiments. Introduction of tested compound (peroral 50 mg/kg, daily during 14 days) was started in 7 days after transplantation of tumour (an average size of tumour was 30-60 mm^3). As a result of the tests it was shown that under the said way of introduction compound III-1029 suppresses tumour growth on 67% in comparison with the control group (mice with implanted tumour not treated with compound III-1029).
Example of antitumour activity of compounds III-1017 and III-1011 towards human's pancreatic carcinoma Panc1, implanted to immunodeficient transgenic (naked) mice Balb-c/nude, is presented in FIG. 4. Mice of 8 weeks age which were implanted with pancreatic carcinoma by injection of 4×10^7 tumour cells were used in the experiments. Introduction of tested compound (intraperitoneally […], daily during 21 days) was started in 8 days after transplantation of tumour (an average size of tumour is 60-140 mm^3). As a result of the tests it was shown that under the said way of introduction compounds III-1017 and III-1011 suppress tumour growth on 27 and 46% in comparison with the control group (mice with implanted tumour not treated with the tested compounds).

The nature of data set [2]: Pharmacokinetic investigation in mice (PO and IP). Conditions: BALB/c, mouse, plasma, read-out: % F (PO/IV). The class given is in vivo, mice of BALB/c line.
Data set [3] is described as follows: Maximum tolerated dose, intraperitoneal once daily for 5 days. The note with it: mouse, in vivo, ip, male SHK mice. The protocol: Maximum tolerated dose of compounds was determined in tests on male mice of SHK line by intraperitoneal once daily introduction of the compounds in doses from 30 to 300 mg/kg during 5 days. 8 Mice were used in each group. Weight of mice and also animals' mortality were registered. […] According to the classification of chemical compounds toxicity the investigated compounds may be referred to low-toxic substances.

For the next data set, the target named is T1, Smo receptors (Homo sapiens, UniProt Q99835).
T1 construct: expressed in transfected cells; host or cells: HEK cells (Smo-HEK)
Kind of data set: Displacement of bodipy-cyclopamine from Smo receptors in Smo-HEK cells. Type of data set: binding. The note with it: half-maximal displacement of bodipy-cyclopamine. The procedure:
Binding parameters to Smo receptors for some of compounds of the general formulas I-VIII are presented in table 11 as the values of half-maximal displacement of cyclopamine labelled with fluorescent dye (bodipy-cyclopamine). The tests were carried out for Smo-HEK cells, comprising artificially expressed protein Smo.

Data set [4] is described as follows: Pharmacokinetic investigation in mice (PO and IP). Type of data set: in vivo, mice of BALB/c line. The note with it: BALB/c, mouse, plasma; for half-life: read-out: T½. The protocol:
Pharmacokinetic investigations were carried out on mice of BALB/c line. All animals were divided into three groups in a random manner: two experimental groups were used for pharmacokinetic analyses at peroral (PO) and intraperitoneal (IP) ways of substance introduction in various doses, and the control group for getting intact blood plasma.
Blood samples were taken by decapitation of animals before introduction of medicament (control samples), and by decapitation in 5, 15, 30, 60, 120 and 240 minutes after introduction of medicament. Three mice were used for each time interval point.
Analysis of samples comprising compounds of the general formulas I-VIII was carried out by Chromato-Mass-Spectrometry method. The data were analysed by means of software package WinNonLin (Pharsight, CIIIA).
Oral bioavailability % F of compounds of the general formulas I-VIII was calculated on the basis of experimental results according to the following equation: % F=[AUC0→t,(PO)/AUC0→t,(IP)]×100%.

A further data set concerns Hh-signalling cascade. Kind of data set: Inhibition of SHh-induced alkaline phosphatase in C3H10T1/2 cells (Hh-signalling cascade inhibition). The class given is cell-based. Conditions: Mus musculus, C3H 10T1/2, half maximal inhibition of SHh (0.3 μg/ml) stimulation of cell alkaline phosphatase. The essentials: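 C3H10T1/2 cells preincubated 30 min with compound (screen at 10 μM; IC50 from triplicate dilution series), then stimulated with 0.3 μg/ml recombinant SHh for 3 days at 37 °C. Alkaline phosphatase measured by CSPD luminescence in 0.2% Triton-X100 lysates; IC50 = half-maximal inhibition of SHh-induced activity.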

Data set [5] concerns transcription factor Gli1. Kind of data set: Suppression of transcription factor Gli1 induction in Panc1 cell culture. Conditions: 20 mkM, 72 hours, Panc1 cells. Type of data set: cell-based, human. The protocol:
Examples of suppression of the transcription factor Gli1 induction in human's tumor cell culture Panc1 by compounds of the general formulas I-VIII are presented in FIG. 2. […] This effect could be enhanced at combined action of the tested compound and kinas inhibitor (oncolitic Iressa). For caning out the experiments the tumour cell culture Panc1 was cultivated for 72 hours in the presence of 20 mkM of tested compounds.
Measurements of expression level Gli1 were carried out by determination of HGli mRNA amount according to the method [Lauth M., Bergstrom A., Shimokawa T., Toftgard R. Inhibition of GLI-mediated transcription and tumor cell growth by small-molecule antagonists. PNAS. 2007, 104(20): 8455-8460].

The mark [6] stands for this setting: intraperitoneally 100 m mg/kg, daily during 21 days.

T1 sequence (Q99835 28-787): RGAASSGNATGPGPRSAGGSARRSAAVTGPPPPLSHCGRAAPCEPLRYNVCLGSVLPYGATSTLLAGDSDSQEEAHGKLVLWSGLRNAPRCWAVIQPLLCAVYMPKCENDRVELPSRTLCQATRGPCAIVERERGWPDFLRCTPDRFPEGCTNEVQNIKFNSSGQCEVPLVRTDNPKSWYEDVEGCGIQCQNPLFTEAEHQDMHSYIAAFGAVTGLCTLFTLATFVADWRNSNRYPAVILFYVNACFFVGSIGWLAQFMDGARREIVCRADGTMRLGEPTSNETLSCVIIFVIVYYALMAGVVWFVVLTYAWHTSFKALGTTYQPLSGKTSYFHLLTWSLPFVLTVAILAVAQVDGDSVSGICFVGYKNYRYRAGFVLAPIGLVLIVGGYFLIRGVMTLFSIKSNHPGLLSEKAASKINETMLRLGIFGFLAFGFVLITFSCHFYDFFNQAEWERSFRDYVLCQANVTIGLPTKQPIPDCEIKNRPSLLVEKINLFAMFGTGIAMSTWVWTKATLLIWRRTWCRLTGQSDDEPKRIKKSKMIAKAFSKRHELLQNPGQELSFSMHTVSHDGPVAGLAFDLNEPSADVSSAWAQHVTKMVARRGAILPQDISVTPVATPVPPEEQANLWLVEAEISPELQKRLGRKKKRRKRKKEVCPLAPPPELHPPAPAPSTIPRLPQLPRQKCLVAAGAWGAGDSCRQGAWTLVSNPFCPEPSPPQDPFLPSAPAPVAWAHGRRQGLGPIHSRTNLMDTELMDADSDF

With `Cc1cccn2cc(-c3ccc(NC(=O)c4ccccc4F)cc3)nc12` [III-1011, 2-Fluoro-N-[4-(8-methylimidazo[1,2-a]pyridin-2-yl)phenyl]benzamide], in data set [1] (setting [6]), the “Suppression of tumour growth in comparison with the control group” value (“Suppression of tumour growth” for short) is reported as 46%. For the same compound, the bioavailability in data set [2] is 64%. This compound showed a maximum tolerated dose (MTD) at 5 days in data set [3] of more than 200 mg/kg. Also, the IC50 on Smo receptors was determined as 93 nM. Moreover, in data set [4] (IP, 5 mg/Kg), the Cmax stood at 1040 ng/mL and the half-life stood at 44 min. In data set [4] (PO, 5 mg/Kg), the Cmax was 564 ng/mL and the half-life turned out to be 58 min.
Consider `Cc1ccn2cc(-c3cccc(NC(=O)c4sc(-c5ccccc5)nc4C)c3)nc2c1` [III-1017, 4-Methyl-2-phenylthiazol-5-carboxylic acid [3-(7-methylimidazo[1,2-a]pyridin-2-yl)phenyl]amide], for which, in data set [1] (setting [6]), the “Suppression of tumour growth” value was 27%. Further, the bioavailability in data set [2] was found to be 19%. The same compound showed an MTD at 5 days in data set [3] of more than 200 mg/kg. Also, in the data set on Hh-signalling cascade, the IC50 is less than 500 nM. Besides, in data set [4] (IP, 5 mg/Kg), the Cmax turned out to be 357 ng/mL and the half-life turned out to be 67 min. Further, in data set [4] (PO, 5 mg/Kg), the Cmax amounted to 398 ng/mL and the half-life was found to be 55 min.
For the compound `Cc1cccn2cc(-c3ccc(NC(=O)c4ccccc4Br)cc3)nc12` [III-1029, N-[4-(8-Methylimidazo[1,2-a]pyridin-2-yl)phenyl]-2-bromobenzamide], in data set [1] (peroral 50 mg/kg, daily during 14 days), the “Suppression of tumour growth” value was found to be 67%. Moreover, the bioavailability in data set [2] came to 75%. Also, the “Suppression of Gli1 expression (HGli mRNA)” value in data set [5] is “block effectively Hh-signalling cascade”. For the same compound, in data set [3], the MTD at 5 days was more than 200 mg/kg. The figures for the concentration for half-maximal inhibition (IC50) on Smo receptors and with Hh-signalling cascade were 259 nM and less than 500 nM, respectively. Also, in data set [4] (PO, dose not given), the half-life was determined as 59 min.

What is called MTD is the highest dose tested that stayed within the study's limit of toxicity. A word on the IC50: it is the point on the concentration scale where inhibition reaches its midpoint. As a reminder, the Cmax is the highest concentration seen after dosing.
